According to patent US12653191B2, “Active compound combinations” (Bayer Aktiengesellschaft, priority 2020, dated 2026):
“And” between values parts separate entries of the source, which are not always exact repeats. Equal entries are not always repeated. Where two headings read alike, the source gives them in different places.

What was measured:
Alternaria alternate = assay: in vitro-Test with fungal microorganisms, Method A (tables A1-A12); type: cell-based, Alternaria alternata; conditions: applied alone
Procedure: (§1) Example: In Vitro-Test with Fungal Microorganisms
(§2) Wells of 96-well microtiter plates are filled with 10 μl of a preparation of test compound or compound combination in methanol+emulsifier alkylaryl-polyglycol-ether. Thereafter, the solvent is evaporated in a hood. At the next step, 100 μl of liquid potato dextrose medium is given into each well, that has been amended with an appropriate concentration of spores or mycelium suspension of the test fungus.
(§3) With the aid of a photometer, the extinction in all wells is measured at the wavelength of 620 nm.
(§4) The microtiter plates are incubated at 20° C. and 85% relative humidity. The inhibition of growth is determined again photometrically 3-5 days after the application. Efficacy is calculated in relation to the untreated control, 0% efficacy means fungal growth as high as in untreated control while 100% efficacy means no fungal growth is measured.
(§5) The data in tables A1 to A12, B1 to B14, C1 to C10, D1 to D8, E1 to E8, F1 to F11, G1 to G4, H1 to H4 and I1 to I5 were collected according to Method A. The data in tables A13 to A22, B15 to B18, C11 to C20, E9 to E16, F12 to F15, G5 to G15, H5 to H8, I6 to I11 and J1 to J11 were collected according to Method B.

Botrytis cinerea [1] = assay: in vitro-Test with fungal microorganisms, Method A (tables B1-B14); type: cell-based
Summary of the method: (§6)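 Growth inhibition was measured photometrically at 620 nm 3–5 days after application, with 100% efficacy meaning no growth and 0% meaning growth equal to the untreated control. Fungal spore or mycelium suspension in potato dextrose broth was added onto solvent-evaporated compound and incubated at 20° C and 85% relative humidity.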

Cercospora beticola [2] = assay: in vitro-Test with fungal microorganisms, Method A (tables C1-C10); type: cell-based; conditions: for inhibition of growth at 0.0008 ppm / inhibition of growth at 0.004 ppm / inhibition of growth at 0.02 ppm / inhibition of growth at 0.1 ppm: Cercospora beticola, read-out: Efficacy %
Procedure: as §1, §2, §3, §4, §5

Diaporthe citri = assay: in vitro-Test with fungal microorganisms, Method A (tables F1-F11); type: cell-based; conditions: applied alone
Summary of the method: as §6

Fusarium culmorum [3] = assay: in vitro-Test with fungal microorganisms, Method A (tables G1-G4); type: cell-based; conditions: alone
Procedure: as §1, §2, §3, §4, §5

[4] = tested on: Ustilago segetum var. avenae; assay: in vitro-Test with fungal microorganisms, Method A (tables I1-I5); type: cell-based; conditions: alone
Procedure: as §1, §2, §3, §4, §5

Alternaria alternata = assay: in vitro-Test with fungal microorganisms, Method B (tables A13-A22); type: cell-based; conditions: single compound
Summary of the method: (§7)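 Efficacy, relative to untreated control (0% = growth as in control, 100% = no growth), from photometric growth measurement at 600 nm after 3 to 7 days at 20° C., 85% relative humidity. Compound applied in methanol+emulsifier, solvent evaporated, then spore/mycelium-amended liquid medium added.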

Botrytis cinerea [5] = assay: in vitro-Test with fungal microorganisms, Method B (tables B15-B18); type: cell-based
Procedure: as §1
as §2, with “30” for “10”, “200” for “100”, “growth” for “potato dextrose”, “given,” for “given into each well,”
(§8) With the aid of a photometer, the extinction in all wells is measured at the wavelength of 600 nm.
(§9) The microtiter plates are incubated for 3 to 7 days at 20° C. and 85% relative humidity. After the incubation inhibition of growth is determined photometrically. Efficacy is calculated in relation to the untreated control, 0% efficacy means fungal growth as high as in untreated control while 100% efficacy means no fungal growth is measured.
as §5

Cercospora beticola [6] = assay: in vitro-Test with fungal microorganisms, Method B (tables C11-C20); type: cell-based
Summary of the method: as §7

[7] = tested on: Colletotrichum lindemuthianum; assay: in vitro-Test with fungal microorganisms, Method A (tables D1-D8); type: cell-based
Summary of the method: as §6

Cordana musae [8] = assay: in vitro-Test with fungal microorganisms, Method A (tables E1-E8); type: cell-based
Procedure: as §1, §2, §3, §4, §5

Cordana musae [9] = assay: in vitro-Test with fungal microorganisms, Method B (tables E9-E16); type: cell-based; conditions: single active
Summary of the method: as §7

Fusarium culmorum [10] = assay: in vitro-Test with fungal microorganisms, Method B (tables G5-G15); type: cell-based
Summary of the method: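 Steps: solvent evaporation leaves the compound coating the wells; fungus-inoculated liquid growth medium goes on top; absorbance at 600 nm is measured; incubation runs 3 to 7 days at 20° C. with 85% relative humidity. Inhibition is then read photometrically and expressed as efficacy against untreated control.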

[11] = tested on: Ustilago segetum var. avenae; assay: in vitro-Test with fungal microorganisms, Method B (tables I6-I11); type: cell-based
Procedure: as §1
as §2, with “30” for “10”, “200” for “100”, “growth” for “potato dextrose”, “given,” for “given into each well,”
as §8, §9, §5

Colletotrichum coccodes = assay: in vitro-Test with fungal microorganisms, Method B (tables J1-J11); type: cell-based
Summary of the method: as §7

[12] = Botrytis cinerea, read-out: Efficacy
[13] = Botrytis cinerea, alone, read-out: Efficacy %

SMILES: Cc1cc(C2=NOCC(Cc3ccc(Br)cc3C)N2)c(Oc2cccc(Cl)c2F)nn1 (racemic) [Compound I-300, rac-5-[(4-bromo-2-methylphenyl)methyl]-3-[3-(3-chloro-2-fluorophenoxy)-6-methylpyridazin-4-yl]-5,6-dihydro-4H-1,2,4-oxadiazine]
- inhibition of growth at 0.1 ppm (Alternaria alternate; Alternaria, 0.1 ppm, read-out: Efficacy %): 100%
- inhibition of growth at 0.0008 ppm (Botrytis cinerea [1]; Botrytis cinerea, 0.0008 ppm, read-out: Efficacy): 0%
- inhibition of growth at 0.004 ppm (Botrytis cinerea [1]; Botrytis cinerea, 0.004 ppm, read-out: Efficacy): 0%
- inhibition of growth at 0.02 ppm (Botrytis cinerea [1]; Botrytis cinerea, 0.02 ppm, read-out: Efficacy): 0%
- inhibition of growth at 0.1 ppm (Botrytis cinerea [1]; Botrytis cinerea, 0.1 ppm, read-out: Efficacy): 49%
- inhibition of growth at 0.0008 ppm (Cercospora beticola [2]; 0.0008 ppm alone): 0%
- inhibition of growth at 0.0008 ppm (Cercospora beticola [2]; 0.0008 ppm): 0%
- inhibition of growth at 0.004 ppm (Cercospora beticola [2]; 0.004 ppm alone): 0%
- inhibition of growth at 0.004 ppm (Cercospora beticola [2]; 0.004 ppm): 0%
- inhibition of growth at 0.02 ppm (Cercospora beticola [2]; 0.02 ppm alone): 10%
- inhibition of growth at 0.02 ppm (Cercospora beticola [2]; 0.02 ppm): 10%
- inhibition of growth at 0.1 ppm (Cercospora beticola [2]; 0.1 ppm alone): 19%
- inhibition of growth at 0.1 ppm (Cercospora beticola [2]; 0.1 ppm): 19%
- inhibition of growth at 0.0008 ppm (Diaporthe citri; Diaporthe citri, 0.0008 ppm, read-out: Efficacy): 0%
- inhibition of growth at 0.004 ppm (Diaporthe citri; Diaporthe citri, 0.004 ppm, read-out: Efficacy): 10%
- inhibition of growth at 0.02 ppm (Diaporthe citri; Diaporthe citri, 0.02 ppm, read-out: Efficacy): 22%
- inhibition of growth at 0.1 ppm (Diaporthe citri; Diaporthe citri, 0.1 ppm, read-out: Efficacy): 44%
- inhibition of growth at 0.0008 ppm (Fusarium culmorum [3]; Fusarium culmorum, 0.0008 ppm, read-out: Efficacy): 2%
- inhibition of growth at 0.004 ppm (Fusarium culmorum [3]; Fusarium culmorum, 0.004 ppm, read-out: Efficacy): 6%
- inhibition of growth at 0.02 ppm (Fusarium culmorum [3]; Fusarium culmorum, 0.02 ppm, read-out: Efficacy): 5%
- inhibition of growth at 0.1 ppm (Fusarium culmorum [3]; Fusarium culmorum, 0.1 ppm, read-out: Efficacy): 2%
- inhibition of growth at 0.0008 ppm ([4]; 0.0008 ppm, read-out: Efficacy %): 0%
- inhibition of growth at 0.004 ppm ([4]; 0.004 ppm, read-out: Efficacy %): 0%
- inhibition of growth at 0.02 ppm ([4]; 0.02 ppm, read-out: Efficacy %): 0%
- inhibition of growth at 0.1 ppm ([4]; 0.1 ppm, read-out: Efficacy %): 0%

SMILES: CC(C)c1ccc(Cl)cc1CN(C(=O)c1c(C(F)F)nn(C)c1F)C1CC1 [(2.038) isoflucypram, isoflucypram]
- Efficacy % (Alternaria alternate; 0.008 ppm): 43% and 52%
- Efficacy % (Alternaria alternate; 0.04 ppm): 70% and 71% and 74%
- Efficacy % (Alternaria alternate; 0.2 ppm): 77% and 85% and 83%
- Efficacy % (Alternaria alternate; 1.0 ppm): 82% and 84%
- Efficacy (Alternaria alternata; 0.008 ppm): 22%
- Efficacy (Alternaria alternata; 1 ppm): 77%
- Efficacy (Botrytis cinerea [1]; 1.0 ppm): 75%
- Efficacy % (Botrytis cinerea [1]; alone, 0.008 ppm): 5%
- Efficacy % (Botrytis cinerea [1]; alone, 0.04 ppm): 53%
- Efficacy % (Botrytis cinerea [1]; alone, 0.2 ppm): 58%
- Efficacy % (Botrytis cinerea [1]; alone, 1.0 ppm): 77%
- Efficacy % (Botrytis cinerea [5]; 0.2 ppm alone): 53%
- Efficacy % (Botrytis cinerea [5]; 1 ppm alone): 70%
- Efficacy % (Cercospora beticola [2]; 0.008 ppm alone): 10%
- Efficacy % (Cercospora beticola [2]; 0.04 ppm alone): 0%
- Efficacy % (Cercospora beticola [2]; 0.2 ppm alone): 44%
- Efficacy % (Cercospora beticola [2]; 1.0 ppm alone): 69%
- Efficacy % (Cercospora beticola [6]; 0.008 ppm): 8%
- Efficacy % (Cercospora beticola [6]; 0.04 ppm): 14%
- Efficacy % (Cercospora beticola [6]; 0.2 ppm): 16%
- Efficacy % (Cercospora beticola [6]; 1 ppm): 44%
- Efficacy % (Cercospora beticola [6]; single compound, 0.04 ppm): 14% and 13%
- Efficacy % (Cercospora beticola [6]; single compound, 1 ppm): 40% and 35%
- Efficacy % ([7]; single active at 0.008 ppm): 0%
- Efficacy % ([7]; single active at 0.04 ppm): 14%
- Efficacy % ([7]; single active at 0.2 ppm): 0%
- Efficacy % ([7]; single active at 1.0 ppm): 18%
- Efficacy % (Cordana musae [8]; mixing partner alone, 0.008 ppm): 0%
- Efficacy % (Cordana musae [8]; mixing partner alone, 0.04 ppm): 0%
- Efficacy % (Cordana musae [8]; mixing partner alone, 0.2 ppm): 0%
- Efficacy % (Cordana musae [8]; mixing partner alone, 1.0 ppm): 0%
- Efficacy % (Cordana musae [8]; single substance, 0.008 ppm): 0%
- Efficacy % (Cordana musae [8]; single substance, 0.04 ppm): 0%
- Efficacy % (Cordana musae [8]; single substance, 0.2 ppm): 0% and 1%
- Efficacy % (Cordana musae [8]; single substance, 1.0 ppm): 22% and 27%
- Efficacy (Cordana musae [9]; 0.2 ppm): 9%
- Efficacy (Cordana musae [9]; 1 ppm): 20%
- Efficacy (Diaporthe citri; 0.008 ppm): 0%
- Efficacy (Diaporthe citri; 0.04 ppm): 0%
- Efficacy (Diaporthe citri; 1.0 ppm): 30% and 38%
- Efficacy (Fusarium culmorum [10]; 0.008 ppm alone): 0%
- Efficacy (Fusarium culmorum [10]; 0.04 ppm alone): 0%
- Efficacy (Fusarium culmorum [10]; 0.2 ppm alone): 10%
- Efficacy (Fusarium culmorum [10]; 1 ppm alone): 24%
- Efficacy (Fusarium culmorum [10]; single active compound, 0.04 ppm): 10%
- Efficacy (Fusarium culmorum [10]; single active compound, 0.2 ppm): 19% and 20%
- Efficacy % ([4]; 0.008 ppm): 6% and 0%
- Efficacy % ([4]; 0.2 ppm): 100%
- Efficacy % ([4]; 1.0 ppm): 100%
- Efficacy % ([11]; 0.008 ppm): 9%
- Efficacy % ([11]; 0.04 ppm): 17%
- Efficacy % ([11]; 0.2 ppm): 100%
- Efficacy % ([11]; alone, 0.008 ppm): 2%
- Efficacy % ([11]; alone, 0.04 ppm): 5%
- Efficacy % ([11]; alone, 0.2 ppm): 100%
- Efficacy % (Colletotrichum coccodes; 0.008 ppm): 0%
- Efficacy % (Colletotrichum coccodes; 0.04 ppm): 46%
- Efficacy % (Colletotrichum coccodes; 0.2 ppm): 8%
- Efficacy % (Colletotrichum coccodes; 1 ppm): 0%
- Efficacy % (Colletotrichum coccodes; single active compound at 0.04 ppm): 0% and 1%

SMILES: CCN(C)C=Nc1cc(C)c(Oc2ccccc2F)cc1Cl [(15.064), N′-[2-chloro-4-(2-fluorophenoxy)-5-methylphenyl]-N-ethyl-N-methylimidoformamide]
- inhibition of growth at 0.08 ppm (Alternaria alternate; Alternaria, 0.08 ppm, read-out: Efficacy %): 2%
- inhibition of growth at 0.4 ppm (Alternaria alternate; Alternaria, 0.4 ppm, read-out: Efficacy %): 5%
- inhibition of growth at 2 ppm (Alternaria alternate; Alternaria, 2.0 ppm, read-out: Efficacy %): 12%
- inhibition of growth at 10 ppm (Alternaria alternate; Alternaria, 10.0 ppm, read-out: Efficacy %): 50%
- inhibition of growth at 0.08 ppm (Botrytis cinerea [1]; [12]): 5%
- inhibition of growth at 0.4 ppm (Botrytis cinerea [1]; Botrytis cinerea, 0.4 ppm, read-out: Efficacy): 21%
- inhibition of growth at 2 ppm (Botrytis cinerea [1]; [12]): 2%
- inhibition of growth at 0.08 ppm (Botrytis cinerea [1]; [13]): 9%
- inhibition of growth at 2 ppm (Botrytis cinerea [1]; [13]): 5%
- inhibition of growth at 0.08 ppm ([7]; Colletotrichum lindemuthianum, mixing partner alone, 0.08 ppm, read-out: Efficacy %): 16%
- inhibition of growth at 0.4 ppm ([7]; Colletotrichum lindemuthianum, mixing partner alone, 0.4 ppm, read-out: Efficacy %): 0%
- inhibition of growth at 2 ppm ([7]; Colletotrichum lindemuthianum, mixing partner alone, 2.0 ppm, read-out: Efficacy %): 0%
- inhibition of growth at 0.4 ppm (Cordana musae [8]; Neocordana musae, mixing partner alone, 0.4 ppm, read-out: Efficacy %): 0%
- inhibition of growth at 2 ppm (Cordana musae [8]; Neocordana musae, mixing partner alone, 2.0 ppm, read-out: Efficacy %): 0%
- inhibition of growth at 10 ppm (Cordana musae [8]; Neocordana musae, mixing partner alone, 10.0 ppm, read-out: Efficacy %): 27%
- inhibition of growth at 2 ppm (Diaporthe citri; Diaporthe citri, 2.0 ppm, read-out: Efficacy): 0%
- inhibition of growth at 10 ppm (Diaporthe citri; Diaporthe citri, 10.0 ppm, read-out: Efficacy): 0%
- inhibition of growth at 2 ppm (Fusarium culmorum [3]; Fusarium culmorum, 2.0 ppm, read-out: Efficacy): 0%
- inhibition of growth at 10 ppm (Fusarium culmorum [3]; Fusarium culmorum, 10.0 ppm, read-out: Efficacy): 1%

SMILES: CCO[PH](=O)[O-].CCO[PH](=O)[O-].CCO[PH](=O)[O-].[Al+3] [fosetylaluminium]
- Efficacy (Fusarium culmorum [3]; 0.8 ppm): 7%
- Efficacy (Fusarium culmorum [3]; 4.0 ppm): 0%
- Efficacy (Fusarium culmorum [3]; 20.0 ppm): 5%
- Efficacy (Fusarium culmorum [3]; 100.0 ppm): 9%
